Experimental data published in ChEMBL document CHEMBL4480460, “Concise Modular Synthesis of Thalassotalic Acids A-C” (J Nat Prod, 2019).
pIC50: −log10 of the molar value.

Target: T1, Tyrosinase (Agaricus bisporus, UniProt O42713)
T1 sequence (O42713 whole entry): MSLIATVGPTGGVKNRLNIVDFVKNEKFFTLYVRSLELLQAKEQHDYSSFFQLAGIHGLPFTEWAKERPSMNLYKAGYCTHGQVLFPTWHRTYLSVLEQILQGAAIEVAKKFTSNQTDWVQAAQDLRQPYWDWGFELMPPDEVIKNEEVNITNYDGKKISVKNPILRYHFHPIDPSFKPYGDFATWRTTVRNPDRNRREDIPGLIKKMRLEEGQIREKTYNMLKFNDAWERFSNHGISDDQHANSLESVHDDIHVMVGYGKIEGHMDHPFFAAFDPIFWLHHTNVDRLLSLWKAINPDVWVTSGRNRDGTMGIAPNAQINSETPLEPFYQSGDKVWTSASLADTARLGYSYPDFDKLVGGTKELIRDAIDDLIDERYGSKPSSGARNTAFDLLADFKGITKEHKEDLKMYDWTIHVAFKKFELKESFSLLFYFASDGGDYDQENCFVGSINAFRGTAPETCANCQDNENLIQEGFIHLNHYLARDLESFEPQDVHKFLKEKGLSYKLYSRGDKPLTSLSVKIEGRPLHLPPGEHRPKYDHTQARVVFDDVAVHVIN
Description: Inhibition of mushroom tyrosinase using L-tyrosine as substrate measured after 30 mins

| pIC50 | SMILES |
| --- | --- |
| 3.60 | CCCCCCCCC(=O)N/C(=C\c1ccc(O)cc1)C(=O)O |
| 3.74 | O=C(O)/C(=C/c1ccc(O)cc1)NC(=O)c1ccccc1 |
| 4.19 | CC(=O)N/C(=C\c1ccc(O)cc1)C(=O)O |
